# Measured values taken from patent publication US8008329B2 (Dong Wha Pharmaceutical Co., Ltd., priority 2008, dated 2011).
# Marks after values point to notes of the source that are not given here.
# Tested on: osteoclast differentiation
# Test: Osteoclast differentiation in co-culture of mouse bone marrow cells and ST2 cells, TRAP staining (Examples 8-9)
# Assay type: cell-based
# Conditions: for % number of osteoclast (vs. solvent control group): day 7; for activity at 0.1 µM: Mus musculus, Osteoclast, 168 h, day 7, read-out: % number of osteoclast (vs. solvent control group)
# In short: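 Readout was TRAP-positive multinucleated (≥6 nuclei) cells on day 7, reported as % of 0.1% DMSO control, mean±SD of 4 wells. Cells were mouse (male ddY) bone marrow plus ST2 co-cultures driven by 10^−8 M vitamin D3/dexamethasone. Benzamidines, alendronic acid or risedronic acid were added at 0.1 μM alone or combined, with media renewed days 3 and 5.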
# [1] = Combination treatment (alendronic acid + compounds), 0.1 μM each
# [2] = Combination treatment (risedronic acid + compounds), 0.1 μM each
# [3] = Individual treatment (compounds), 0.1 μM
Compound,% number of osteoclast (vs. solvent control group) [1],% number of osteoclast (vs. solvent control group) [2],activity at 0.1 µM [3] [%],% number of osteoclast (vs. solvent control group) [3] [%]
"Cc1nc(-c2ccc(OCCCCC(=O)Nc3ccc(C(=N)NO)cc3)cc2)c(C(C)C)s1 [Compound 182, N-hydroxy-4-{5-[4-(5-isopropyl-2-methyl-1,3-thiazol-4-yl)-phenoxy]-pentanoyl-amino}-benzamidine]",45 ± 6.7%,41 ± 5.1^c %,82 ± 12,–
"Cc1nc(-c2ccc(OCc3ccc(COc4ccc(C(=N)NO)cc4)cc3)cc2)c(C(C)C)s1 [Compound 185, N-hydroxy-4-{4-[4-(5-isopropyl-2-methyl-1,3-thiazol-4-yl)-phenoxymethyl]-benzyloxy}-benzamidine]",57 ± 13.9%,45 ± 1.4^ac %,81 ± 7,–
"Cc1nc(-c2ccc(OCCCCCOc3ccc(C(=N)NO)cc3)cc2)c(CN2CCN(C)CC2)s1 [Compound 294, N-hydroxy-4-(5-{4-[2-methyl-5-(4-methyl-piperazin-1-ylmethyl)-thiazol-4-yl]-phenoxy}-pentyloxy)-benzamidine]",13 ± 2.4^ab %,9 ± 2.7^ac %,27 ± 4.5,–
"CN(CCO)c1nc(-c2ccc(OCCCCCOc3ccc(C(=N)NO)cc3)cc2)c(CN2CCOCC2)s1 [Compound 310, N-hydroxy-4-[5-(4-{2-[(2-hydroxy-ethyl) -methyl-amino]-5-morpholin-4-ylmethyl-thiazol-4-yl}-phenoxy)-pentyloxy]-benzamidine]",33 ± 5.1^ab %,18 ± 4.5^ac %,49 ± 3.3,–
"N=C(NO)c1ccc(OCCCCCOc2ccc(-c3nc(N4CCCCC4)sc3N3CCOCC3)cc2)cc1 [Compound 337, N-hydroxy-4-{5-[4-(5-morpholin-4-yl-2-piperidin-1-yl-thiazol-4-yl)-phenoxy]-pentyloxy}-benzamidine]",20 ± 3.0^ab %,16 ± 3.6^ac %,53 ± 3.7,–
"CCCCc1sc(N(CCC)CCC)nc1-c1ccc(OCCCCCOc2ccc(C(=N)NO)cc2)cc1 [Compound 146, N-hydroxy-4-{5-[4-(5-butyl-2-dipropylamino-1,3-thiazol-4-yl)phenoxy]pentyloxy}-benzamidine]",79 ± 7.8%,60 ± 13.6^c %,81 ± 8.9,–
"CCc1sc(N2CCCCC2)nc1-c1ccc(OCCCCCOc2ccc(C(=N)NO)cc2)cc1 [Compound 166, N-hydroxy-4-{5-[4-(5-ethyl-2-piperidino-1,3-thiazol-4-yl)phenoxy]pentyloxy}-benzamidine]",43 ± 9.4^ab %,35 ± 3.9^ac %,73 ± 4.4,–
"COCCNc1nc(-c2ccc(OCCCCCOc3ccc(C(=N)NO)cc3)cc2)c(C)s1 [Compound 94, N-hydroxy-4-{5-[4-(2-(2-methoxyethyl)amino-5-methyl-1,3-thiazol-4-yl)phenoxy]pentyloxy}-benzamidine]",20 ± 4.8^ab %,16 ± 3.3^ac %,45 ± 3,–
"CCN(CCN1CCOCC1)c1nc(-c2ccc(OCCCCCOc3ccc(C(=N)NO)cc3)cc2)c(C)s1 [Compound 124, N-hydroxy-4-[5-(4-{2-[ethyl-1-(2-morpholinoethyl)-amino]-5-methyl-1,3-thiazol-4-yl}phenoxy)pentyloxy]-benzamidine]",21 ± 4.3^ab %,17 ± 5.2^ac %,–,49 ± 3.0
Cc1sc(N(C)CCO)nc1-c1ccc(OCCCCCOc2ccc(C(=N)NO)cc2)cc1 [Compound 120],54 ± 2.4^ab %,55 ± 9.1^ac %,80 ± 6.5,–
"N=C(NO)c1ccc(OCCCCCOc2ccc(-c3nc(N4CCCCC4)sc3CC3CCCC3)cc2)cc1 [Compound 167, N-hydroxy-4-{5-[4-(5-cyclopentylmethyl-2-piperidino-1,3-thiazol-4-yl)phenoxy]pentyloxy}-benzamidine]",25 ± 1.9^b %,31 ± 7.6^ac %,72 ± 9.8,–
"Cc1sc(NC(=O)c2ccncc2)nc1-c1ccc(OCCCCCOc2ccc(C(=N)NO)cc2)cc1 [Compound 91, N-hydroxy-4-{5-[4-(5-methyl-2-(4-pyridylcarbonyl)amino-1,3-thiazol-4-yl)phenoxy]pentyloxy}-benzamidine]",35 ± 2.7^ab %,32 ± 7.0^ac %,60 ± 8.8,–
"CCc1sc(N(C)Cc2cccnc2)nc1-c1ccc(OCCCCCOc2ccc(C(=N)NO)cc2)cc1 [Compound 134, N-hydroxy-4-[5-(4-{5-ethyl-2-[methyl-(pyridin-3-ylmethyl)amino]-1,3-thiazol-4-yl}phenoxy)pentyloxy]-benzamidine]",39 ± 3.4^ab %,24 ± 4.0^ac %,57 ± 4.3,–
"Cc1nc(-c2ccc(OCCCCCOc3ccc(C(=N)NO)cc3)cc2)c(CNCCN2CCOCC2)s1 [Compound 302, N-hydroxy-4-[5-(4-{2-methyl-5-[(2-morpholin-4-yl-ethylamino)-methyl]-thiazol-4-yl}-phenoxy)-pentyloxy]-benzamidine]",16 ± 4.5^ab %,9 ± 2.8^ac %,59 ± 10.6,–
"CCN(CCO)c1nc(-c2ccc(OCCCCCOc3ccc(C(=N)NO)cc3)cc2)c(C)s1 [Compound 121, N-hydroxy-4-[5-(4-{2-[ethyl-(2-hydroxyethyl) -amino]-5-methyl-1,3-thiazol-4-yl}phenoxy)pentyloxy]-benzamidine]",55 ± 11.1^ab %,39 ± 5.7^ac %,95 ± 3.9,–
"CCCNc1nc(-c2ccc(OCCCCCOc3ccc(C(=N)NO)cc3)cc2)c(CC)s1 [Compound 98, N-hydroxy-4-{5-[4-(5-ethyl-2-propylamino-1,3-thiazol-4-yl)phenoxy]pentyloxy}-benzamidine]",29 ± 1.6^ab %,11 ± 3.2^ac %,47 ± 3.2,–
"CCCCc1sc(N(C)C)nc1-c1ccc(OCCCCCOc2ccc(C(=N)NO)cc2)cc1 [Compound 152, N-hydroxy-4-{5-[4-(5-butyl-2-dimethylamino-1,3-thiazol-4-yl)phenoxy]pentyloxy}-benzamidine]",46 ± 8.8^b %,48 ± 4.9^ac %,65 ± 2.2,–
"Cc1nc(-c2ccc(OCCCCCOc3ccc(C(=N)NO)cc3)cc2)c(CCN2CCOCC2)s1 [Compound 231, N-hydroxy-4-(5-{4-[2-methyl-5-(2-morpholin-4-yl-ethyl)-thiazol-4-yl]-phenoxy}-pentyloxy)-benzamidine]",50 ± 9.8^b %,40 ± 3.1^ac %,82 ± 14.6,–
"CN(C)c1nc(-c2ccc(OCCCCCOc3ccc(C(=N)NO)cc3)cc2)c(CCN2CCOCC2)s1 [Compound 266, N-hydroxy-4-(5-{4-[2-dimethylamino-5-(2-morpholin-4-yl-ethyl)-thiazol-4-yl]-phenoxy}-pentyloxy)-benzamidine]",36 ± 9.6^ab %,26 ± 4.3^ac %,64 ± 4,–
"CCc1sc(-c2cccnc2)nc1-c1ccc(OCCCCCOc2ccc(C(=N)NO)cc2)cc1 [Compound 21, N-hydroxy-4-{5-[4-(5-ethyl-2-pyridin-3-yl-1,3-thiazol-4-yl)phenoxy]pentyloxy}-benzamidine]",22 ± 7.1^ab %,47 ± 10.1%,52 ± 10.4,–
"C=Cc1sc(-c2cccnc2)nc1-c1ccc(OCCCCCOc2ccc(C(=N)NO)cc2)cc1 [Compound 79, N-hydroxy-4-{5-[4-(5-vinyl-2-(pyridin-3-yl)-1,3-thiazol-4-yl)phenoxy]pentyloxy}-benzamidine]",22 ± 6.7^ab %,16 ± 4.0^ac %,44 ± 7.5,–
"CN(CCN1CCOCC1)c1nc(-c2ccc(OCCCCCOc3ccc(C(=N)NO)cc3)cc2)c(CC2CCCC2)s1 [Compound 148, N-hydroxy-4-[5-(4-{5-cyclopentylmethyl-2-[methyl-(2-morpholinoethyl)amino]-1,3-thiazol-4-yl}phenoxy)pentyloxy]-benzamidine]",33 ± 8.3^ab %,19 ± 2.4^a %,65 ± 4.3,–
"Cc1nc(-c2ccc(OCCCCCOc3ccc(C(=N)NO)cc3)cc2)c(CCN2CCSCC2)s1 [Compound 228, N-hydroxy-4-(5-{4-[2-methyl-5-(2-thiomorpholin-4-yl-ethyl)-thiazol-4-yl]-phenoxy}-pentyloxy)-benzamidine]",31 ± 4.8^ab %,20 ± 5.8^ac %,49 ± 3.5,–
"Cc1nc(-c2ccc(OCCCCCOc3ccc(C(=N)NO)cc3)cc2)c(CCNCC(C)C)s1 [Compound 235, N-hydroxy-4-(5-{4-[5-(2-isobutylamino-ethyl)-2-methyl-thiazol-4-yl]-phenoxy}-pentyloxy)-benzamidine]",33 ± 1.8%,25 ± 4.4^c %,38 ± 7.6,–
